# According to PubChem BioAssay (NCI):
#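 Five compound concentrations were applied to cells in 96-well plates for 48 hours; endpoints were derived by simple linear interpolation of the resulting dose-response curve. Definition used: TGI = concentration required for complete inhibition of growth.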
# Legend:
# Assay in all cases: growth of human tumour cells (NCI), 48 h
# 786-0 renal = system: 786-0 renal
# A498 renal = system: A498 renal
# A549 NSCLC = system: A549 NSCLC
# ACHN renal = system: ACHN renal
# BT-549 breast = system: BT-549 breast
# CAKI-1 renal = system: CAKI-1 renal
# CCRF-CEM leukemia = system: CCRF-CEM leukemia
# COLO 205 colon = system: COLO 205 colon
# DU-145 prostate = system: DU-145 prostate
# EKVX NSCLC = system: EKVX NSCLC
# HCC-2998 colon = system: HCC-2998 colon
# HCT-116 colon = system: HCT-116 colon
# HCT-15 colon = system: HCT-15 colon
# HL-60(TB) leukemia = system: HL-60(TB) leukemia
# HOP-62 NSCLC = system: HOP-62 NSCLC
# HOP-92 NSCLC = system: HOP-92 NSCLC
# HS 578T breast = system: HS 578T breast
# HT29 colon = system: HT29 colon
# IGROV1 ovarian = system: IGROV1 ovarian
# K-562 leukemia = system: K-562 leukemia
# KM12 colon = system: KM12 colon
# LOX IMVI melanoma = system: LOX IMVI melanoma
# M14 melanoma = system: M14 melanoma
# MCF7 breast = system: MCF7 breast
# MDA-MB-231 breast = system: MDA-MB-231 breast
# MDA-MB-435 = system: MDA-MB-435
# MDA-N = system: MDA-N
# MOLT-4 leukemia = system: MOLT-4 leukemia
# NCI-H23 lung = system: NCI-H23 lung
# NCI-H460 lung = system: NCI-H460 lung
# NCI/ADR-RES ovarian = system: NCI/ADR-RES ovarian
# OVCAR-3 ovarian = system: OVCAR-3 ovarian
# OVCAR-4 ovarian = system: OVCAR-4 ovarian
# OVCAR-5 ovarian = system: OVCAR-5 ovarian
# OVCAR-8 ovarian = system: OVCAR-8 ovarian
# PC-3 prostate = system: PC-3 prostate
# RPMI-8226 leukemia = system: RPMI-8226 leukemia
# RXF 393 renal = system: RXF 393 renal
# SF-268 CNS = system: SF-268 CNS
# SF-295 CNS = system: SF-295 CNS
# SF-539 CNS = system: SF-539 CNS
# SK-MEL-2 melanoma = system: SK-MEL-2 melanoma
# SK-MEL-28 melanoma = system: SK-MEL-28 melanoma
# SK-MEL-5 melanoma = system: SK-MEL-5 melanoma
# SK-OV-3 ovarian = system: SK-OV-3 ovarian
# SN12C renal = system: SN12C renal
# SNB-19 CNS = system: SNB-19 CNS
# SNB-75 CNS = system: SNB-75 CNS
# SR leukemia = system: SR leukemia
# SW-620 colon = system: SW-620 colon
# T-47D breast = system: T-47D breast
# TK-10 renal = system: TK-10 renal
# U251 CNS = system: U251 CNS
# UACC-257 melanoma = system: UACC-257 melanoma
# UACC-62 melanoma = system: UACC-62 melanoma
# UO-31 renal = system: UO-31 renal
# MALME-3M melanoma = system: MALME-3M melanoma
smiles,measurement,setting,value
NCCN1C(=O)c2ccccc2C1c1ccc(Cl)cc1 (stereo not given),TGI,786-0 renal,> 100 µM
same,TGI,A498 renal,> 100 µM
same,TGI,A549 NSCLC,> 100 µM
same,TGI,ACHN renal,> 100 µM
same,TGI,BT-549 breast,> 100 µM
same,TGI,CAKI-1 renal,> 100 µM
same,TGI,CCRF-CEM leukemia,> 100 µM
same,TGI,COLO 205 colon,> 100 µM
same,TGI,DU-145 prostate,> 100 µM
same,TGI,EKVX NSCLC,> 100 µM
same,TGI,HCC-2998 colon,> 100 µM
same,TGI,HCT-116 colon,> 100 µM
same,TGI,HCT-15 colon,> 100 µM
same,TGI,HL-60(TB) leukemia,> 100 µM
same,TGI,HOP-62 NSCLC,> 100 µM
same,TGI,HOP-92 NSCLC,> 100 µM
same,TGI,HS 578T breast,> 100 µM
same,TGI,HT29 colon,> 100 µM
same,TGI,IGROV1 ovarian,> 100 µM
same,TGI,K-562 leukemia,> 100 µM
same,TGI,KM12 colon,> 100 µM
same,TGI,LOX IMVI melanoma,> 100 µM
same,TGI,M14 melanoma,> 100 µM
same,TGI,MCF7 breast,> 100 µM
same,TGI,MDA-MB-231 breast,> 100 µM
same,TGI,MDA-MB-435,> 100 µM
same,TGI,MDA-N,> 100 µM
same,TGI,MOLT-4 leukemia,> 100 µM
same,TGI,NCI-H23 lung,> 100 µM
same,TGI,NCI-H460 lung,> 100 µM
same,TGI,NCI/ADR-RES ovarian,> 100 µM
same,TGI,OVCAR-3 ovarian,> 100 µM
same,TGI,OVCAR-4 ovarian,> 100 µM
same,TGI,OVCAR-5 ovarian,> 100 µM
same,TGI,OVCAR-8 ovarian,> 100 µM
same,TGI,PC-3 prostate,> 100 µM
same,TGI,RPMI-8226 leukemia,> 100 µM
same,TGI,RXF 393 renal,> 100 µM
same,TGI,SF-268 CNS,> 100 µM
same,TGI,SF-295 CNS,> 100 µM
same,TGI,SF-539 CNS,> 100 µM
same,TGI,SK-MEL-2 melanoma,> 100 µM
same,TGI,SK-MEL-28 melanoma,> 100 µM
same,TGI,SK-MEL-5 melanoma,> 100 µM
same,TGI,SK-OV-3 ovarian,> 100 µM
same,TGI,SN12C renal,> 100 µM
same,TGI,SNB-19 CNS,> 100 µM
same,TGI,SNB-75 CNS,> 100 µM
same,TGI,SR leukemia,> 100 µM
same,TGI,SW-620 colon,> 100 µM
same,TGI,T-47D breast,> 100 µM
same,TGI,TK-10 renal,> 100 µM
same,TGI,U251 CNS,> 100 µM
same,TGI,UACC-257 melanoma,> 100 µM
same,TGI,UACC-62 melanoma,> 100 µM
same,TGI,UO-31 renal,> 100 µM
NC(Cc1ccc2nc3c4ccccc4c(=O)cc-3oc2c1)C(=O)O (stereo not given),TGI,786-0 renal,> 100 µM
same,TGI,A549 NSCLC,> 100 µM
same,TGI,ACHN renal,> 100 µM
same,TGI,BT-549 breast,> 100 µM
same,TGI,CAKI-1 renal,> 100 µM
same,TGI,CCRF-CEM leukemia,> 100 µM
same,TGI,COLO 205 colon,> 100 µM
same,TGI,DU-145 prostate,> 100 µM
same,TGI,EKVX NSCLC,> 100 µM
same,TGI,HCC-2998 colon,> 100 µM
same,TGI,HCT-116 colon,> 100 µM
same,TGI,HCT-15 colon,> 100 µM
same,TGI,HL-60(TB) leukemia,> 100 µM
same,TGI,HOP-62 NSCLC,> 100 µM
same,TGI,HOP-92 NSCLC,> 100 µM
same,TGI,HS 578T breast,> 100 µM
same,TGI,HT29 colon,> 100 µM
same,TGI,IGROV1 ovarian,> 100 µM
same,TGI,K-562 leukemia,> 100 µM
same,TGI,KM12 colon,> 100 µM
same,TGI,LOX IMVI melanoma,> 100 µM
same,TGI,M14 melanoma,> 100 µM
same,TGI,MALME-3M melanoma,36.8 µM
same,TGI,MCF7 breast,41.4 µM
same,TGI,MDA-MB-231 breast,> 100 µM
same,TGI,MDA-MB-435,32.3 µM
same,TGI,MDA-N,29.4 µM
same,TGI,NCI-H23 lung,65.1 µM
same,TGI,NCI-H460 lung,> 100 µM
same,TGI,NCI/ADR-RES ovarian,> 100 µM
same,TGI,OVCAR-3 ovarian,> 100 µM
same,TGI,OVCAR-4 ovarian,> 100 µM
same,TGI,OVCAR-5 ovarian,> 100 µM
same,TGI,PC-3 prostate,> 100 µM
same,TGI,RPMI-8226 leukemia,> 100 µM
same,TGI,RXF 393 renal,> 100 µM
same,TGI,SF-268 CNS,> 100 µM
same,TGI,SF-295 CNS,> 100 µM
same,TGI,SF-539 CNS,> 100 µM
same,TGI,SK-MEL-2 melanoma,> 100 µM
same,TGI,SK-MEL-28 melanoma,> 100 µM
same,TGI,SK-MEL-5 melanoma,34.6 µM
same,TGI,SK-OV-3 ovarian,> 100 µM
same,TGI,SN12C renal,> 100 µM
same,TGI,SNB-19 CNS,> 100 µM
same,TGI,SNB-75 CNS,> 100 µM
same,TGI,SR leukemia,> 100 µM
same,TGI,SW-620 colon,> 100 µM
same,TGI,T-47D breast,> 100 µM
same,TGI,TK-10 renal,> 100 µM
same,TGI,U251 CNS,> 100 µM
same,TGI,UACC-257 melanoma,> 100 µM
same,TGI,UACC-62 melanoma,> 100 µM
same,TGI,UO-31 renal,> 100 µM
